The text below walks through data of paper PMC9820444, “Design and Synthesis of Acridine-Triazole and Acridine-Thiadiazole Derivatives and Their Inhibitory Effect against Cancer Cells” (International Journal of Molecular Sciences, 2022).

As a reminder, the IC50 is the concentration needed to halve the response being measured.

Structures are written as SMILES.

The target in experiment [1] is T1, DNA topoisomerase I (topo I) (Bos taurus, UniProt F1MN93).
T1 construct: purchased Takara Bio Inc. (Shiga, Japan)
T1 sequence (F1MN93 1-767): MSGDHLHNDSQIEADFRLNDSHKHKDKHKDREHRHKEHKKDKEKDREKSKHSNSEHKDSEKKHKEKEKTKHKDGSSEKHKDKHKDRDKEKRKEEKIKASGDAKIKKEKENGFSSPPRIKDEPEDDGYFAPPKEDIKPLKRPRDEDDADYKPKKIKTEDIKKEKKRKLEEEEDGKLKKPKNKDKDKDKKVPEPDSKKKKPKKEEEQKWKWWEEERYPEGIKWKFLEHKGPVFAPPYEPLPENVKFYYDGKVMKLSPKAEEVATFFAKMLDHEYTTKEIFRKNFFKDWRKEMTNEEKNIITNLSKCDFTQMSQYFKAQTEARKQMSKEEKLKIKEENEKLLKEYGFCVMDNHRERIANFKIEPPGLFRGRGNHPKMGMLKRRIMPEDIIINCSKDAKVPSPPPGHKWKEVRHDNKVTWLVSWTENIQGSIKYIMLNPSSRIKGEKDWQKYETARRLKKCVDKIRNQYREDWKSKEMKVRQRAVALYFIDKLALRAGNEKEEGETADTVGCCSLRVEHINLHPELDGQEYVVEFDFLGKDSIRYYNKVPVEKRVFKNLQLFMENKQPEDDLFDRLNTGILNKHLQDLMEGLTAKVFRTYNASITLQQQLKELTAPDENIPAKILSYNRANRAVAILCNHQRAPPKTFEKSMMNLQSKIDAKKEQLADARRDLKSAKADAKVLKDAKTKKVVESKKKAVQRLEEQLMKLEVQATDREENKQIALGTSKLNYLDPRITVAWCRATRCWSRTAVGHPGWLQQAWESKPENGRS
The experiment can be described thus: Topo I inhibitory activity (pBR322). The class given is biochemical. Particulars: at 100 µM.

The subject of experiment [2] is subintestinal veins (SIVs) in zebrafish embryos. The experiment can be described thus: Zebrafish angiogenesis assay (subintestinal veins, NBT/BCIP staining). The conditions noted are these: zebrafish embryos, 1 mg/mL, compared with blank control group. The class given is in vivo.
Experiment [3] relates to human normal liver cells (LO2). The experiment can be described thus: Cytotoxicity against normal liver cells LO2. The class given is cell-based. Particulars: Homo sapiens, MTT, read-out: Effect against cell viability (IC50), LO2.
Experiment [4] deals with bladder cancer cells (T24). Put plainly: MTT antiproliferative assay, T24. The class given is cell-based, human. The conditions noted are these: Homo sapiens, read-out: Effect against cell viability (IC50), T24. A general note: Formazan colour is commonly taken as a measure of viable cells.
In the next experiment the test system is MGC80-3 cells. Put plainly: Apoptosis by Annexin V-FITC/PI flow cytometry, MGC80-3. The class given is cell-based, human. Particulars: control 0.586%. How it is done:
The apoptosis ratios of MGC80-3 or T24 cell lines induced by the selected compounds at the concentration of IC50 and 0.5 IC50 were quantitatively determined by flow cytometry. Four quadrant images (Q1, Q2, Q3 and Q4) were observed by flow cytometric analysis. […] […] After treatment with compound 6h, 5.62% (3.43 μM) and 14.25% (6.85 μM) of the cells were apoptotic. These were higher percentages than the one observed in the control (0.586%). […] The results evidently illustrate that representative compounds 5d and 6h or 4h and 6h could suppress cell proliferation by inducing apoptosis in the early apoptotic period.
The apoptosis assay and the cell cycle analysis were carried out by cytometry (FACSVerse, BD, Piscataway, NJ, USA) at an excitation wavelength of 488 nm according to the method described in the literature with slight modifications. The cells were seeded at 2 × 10^6/well and washed by cold PBS. The buffer solutions were prepared using 0.1 M pH 7.4 Hepes/NaOH, 1.4 M NaCl, and 25 mM CaCl2.
On the technique in general: In flow cytometry, cells or beads pass a laser one at a time.

Consider `COc1ccc(-c2nnc(N=C3c4ccccc4NC4C=CC(C)=CC34)s2)cc1` (stereo not drawn) [6h, 7-methyl-N-(5-(4-methoxyphenyl)-1,3,4-thiadiazol-2-yl)-10,10a-dihydroacridin-9(8aH)-imine], for which, in experiment [1], the “topo I inhibitory activity” value was “potent”. Besides, the “area of the meshed pattern vessel and number of vascular branches in the network” value in experiment [2] is reported as “decreased”. Also, the IC50 is 43.8 ± 2.63 µM in experiment [3] and 8.93 ± 1.25 µM in experiment [4]. Moreover, the “apoptosis percentage (early and late)” value is 5.62% in the experiment on MGC80-3 cells (MGC80-3, 0.5 IC50 (5d 2.76 μM; 6h 3.43 μM)) and 14.25% in the experiment on MGC80-3 cells (MGC80-3, IC50 (5d 5.52 μM; 6h 6.85 μM)).
